Laboratory results reported in PMC8769072, “Proteome‐scale mapping of binding sites in the unstructured regions of the human proteome” (Molecular Systems Biology, 2022).

System: immobilized GST-tagged bait protein domains
Experiment: ProP-PD phage selections (HD2 P8, sublibraries, HD2 P3, HD1 P8) with NGS and confidence level
Assay type: binding, human
Details: for p3_HD2 confidence / p3_HD2 mean counts / p3_HD2 count proportions: HD2 P3 library
[1] = bait CRK_SH3_1_P46108_124_198, confidence level (4 = High, 2-3 = Medium, 1 = Low)
[2] = bait CRK_SH3_1_P46108_124_198, mean NGS counts over replicate selections
[3] = bait CRK_SH3_1_P46108_124_198, mean proportion of NGS counts
[4] = library HD2, bait EPS15_EH__P42566_121_215, whether the validated benchmark motif instance was recovered in the ProP-PD selection (TRUE/FALSE)
[5] = library HD2, bait VASP_EVH1__P50552_1_114, validated benchmark motif instance, in_library_check TRUE, TRUE/FALSE = instance recovered in ProP-PD selection
[6] = HD2 library, bait TLN1_PTB__Q9Y490_309_401, known motif instance of the benchmarking set found (TRUE) or not found (FALSE) among selected peptides
[7] = HD2 library, bait CALM1_EF-hand__P0DP23_2_149, benchmark motif instance, in_library_check FALSE, in_library_coverage 0
[8] = HD2 library, bait TNKS_TANK-peptide-bind__O95271_174_649, known motif instance of the benchmarking set found (TRUE) or not found (FALSE) among selected peptides
[9] = bait CALM1_EF-hand__P0DP23_2_149, library HD2, benchmarking set of validated motif instances, TRUE = motif instance recovered in the ProP-PD selection
[10] = bait MAP1LC3A_ATG8 (Q9H492 2-121), HD2 library, benchmark motif instance recovered in the ProP-PD selection (TRUE/FALSE)
[11] = bait PABP-B_PABP__P11940_544_623, HD2 library, whether the validated benchmark motif instance was recovered in the ProP-PD selection (TRUE/FALSE)
[12] = bait PABP-B_PABP__P11940_544_623, HD2 library, confidence level (1-4) of best matching selected peptide
[13] = bait PABP-B_PABP__P11940_544_623, HD2 library, specificity score of best matching selected peptide
[14] = bait CRK_SH3_1_P46108_124_198, library HD2, benchmarking set of validated motif instances, TRUE = motif instance recovered in the ProP-PD selection

QQVPAPPLPAKKNLPT
p3_HD2 confidence [1]: 4 | p3_HD2 mean counts [2]: 120.7 | p3_HD2 count proportions [3]: 0.00436

QRTNPSPTNPFSSDLQKTF
motif_found [4]: FALSE

QSGSGGIFPPPPDDDIYDG
motif_found [5]: FALSE

QSKPLVDIDLISFDDD
HD2_nc confidence (bait CLTC_Clathrin-propeller__Q00610_1_364, HD2 P8 nucleocytoplasmic sublibrary, confidence level (4 = High, 2-3 = Medium, 1 = Low)): 4 | HD2_nc mean counts (bait CLTC_Clathrin-propeller__Q00610_1_364, HD2 P8 nucleocytoplasmic sublibrary, mean NGS counts over replicate selections): 25.67 | HD2_nc count proportions (bait CLTC_Clathrin-propeller__Q00610_1_364, HD2 P8 nucleocytoplasmic sublibrary, mean proportion of NGS counts): 0.0005729

RARAKWDTANNPLYKEATSTFT
motif_found [6]: FALSE

RCTSPGGSYGHLSIGTMSPSLG
motif_found (bait SUFU_SUFU__Q9UMX1_1_484, HD2 library, whether the validated benchmark motif instance was recovered in the ProP-PD selection (TRUE/FALSE)): FALSE

RCVNSRQIRPPPDGSDCTSDLA [RAD54L 690-697]
motif_found (HD2 library, bait TNKS_TANK-peptide-bind__O95271_174_649, benchmark motif instance, in_library_check FALSE, in_library_coverage 0): FALSE

RDAEAHPWLSDYDDLTSAT
motif_found (bait PEX14_Pex14__O75381_16_84, HD2 library, whether the validated benchmark motif instance was recovered in the ProP-PD selection (TRUE/FALSE)): FALSE

REMEEKSALIIQKHWRGYRERKNFHQQRQSL [IQCB1 391-407]
motif_found [7]: FALSE

RGRGDGQE
motif_found [8]: FALSE

RHLPPPLPSKTPPPPP
p3_HD2 confidence [1]: 3 | p3_HD2 mean counts [2]: 27.0 | p3_HD2 count proportions [3]: 0.0009618

RKKWKQSVRLISLCQRLSR,KWKQSVRLISLCQRLS [DAPK1]
motif_found [9]: FALSE

RKNTKSMNFDNPVYRKTTEEED [LRP8 860-867]
motif_found (HD2 library, bait TLN1_PTB__Q9Y490_309_401, benchmark motif instance, in_library_check FALSE, in_library_coverage 0): FALSE

RKQEEVSAIIIQRAYRRYLLKQKVKKVSSIY [SCN2A 1909-1925]
motif_found [7]: FALSE

RKQYRKVLYCVVIIQKNYRAFLLRRRFLHLKKAA [MYO10 766-785]
motif_found [7]: FALSE

RKRAKV
motif_found (bait KPNA4_Arm (O00629 68-487), HD2 library, benchmark motif instance recovered in the ProP-PD selection (TRUE/FALSE)): FALSE

RKTLVSMPPLPGLDLKGSESPE [RFX5]
motif_found (bait ANKRA2_Ank__Q9H9E1_142_313, library HD2, benchmarking set of validated motif instances, TRUE = motif instance recovered in the ProP-PD selection): FALSE

RLRHALWPSLPDLHRVLGQYLRDT
motif_found (library HD2, bait ANKRA2_Ank__Q9H9E1_142_313, motif instance NOT in library (in_library_check FALSE, in_library_coverage 0)): FALSE

RMATAEDLPLPPPPALEDL
motif_found [5]: FALSE

RMSQIKRLLSE
motif_found (bait PTK2_Focal-AT__Q05397_891_1050, HD2 library, whether the validated benchmark motif instance was recovered in the ProP-PD selection (TRUE/FALSE)): FALSE

RPPDDAVFDIITDEELCQIQ
motif_found [10]: FALSE

RRKWQKTGNAVRAIGRLSSM [MYLK]
motif_found [9]: FALSE

RRMPAANLIQAAWRLYSTD [KCNQ4 338-356]
motif_found [7]: FALSE

RRRFLHLKKAAIVFQKQLRGQIARRVYRQLLAEK [MYO10 789-808]
motif_found [7]: FALSE

RRRWKLSFSIVSLCNHLTR [DAPK2]
motif_found [9]: FALSE

RSEIGHSPPPAYTPMS
motif_found (bait NEDD4_WW_4 (P46934 890-928), HD2 library, benchmark motif instance recovered in the ProP-PD selection (TRUE/FALSE)): TRUE | best_confidence (bait NEDD4_WW_4 (P46934 890-928), HD2 library, confidence level (1-4) of best matching peptide): 2 | best_specificity (bait NEDD4_WW_4 (P46934 890-928), HD2 library, specificity score of best matching peptide): 1

RVTENNLQTPNPTASEFIPKGGSTSRL
motif_found [11]: FALSE

SAEPRPRTRSNPEGAEDRAVGA
motif_found [8]: FALSE

SALSPNAKEFIFPNMQ
best_confidence [12]: 3 | best_specificity [13]: 1 | motif_found [11]: TRUE

SARILKEYNPFEEEDEEEE
motif_found [4]: FALSE

SASYPPYQATGPPNTSYMPGMPGGI [TSG101]
motif_found (bait CEP55_EABR__Q53EZ4_160_217, library HD2, benchmarking set of validated motif instances, TRUE = motif instance recovered in the ProP-PD selection): FALSE

SDLFPAPPQIPSRPVRIPPG [DNM2]
motif_found [14]: FALSE

SDRTAAPGNPFRAKSEESE
motif_found [4]: FALSE

SEEGDNESRSAGDGTDWEKEDQ
motif_found [8]: FALSE

SETMSMPQLTVPASGS
HD2 confidence (bait ANKRA2_Ank__Q9H9E1_142_313, library HD2 P8): 4

SFGGGFADF [EPS15]
motif_found (bait AP2B1_adaptin__P63010_700_937, library HD2, benchmarking set of validated motif instances, TRUE = motif instance recovered in the ProP-PD selection): TRUE

SFLSRRAARTIQTAFRQYRMNKNFERLRSSA [IQSEC2]
motif_found [9]: FALSE

SFNPDAQVFVPIGSQD
best_confidence [12]: 3 | best_specificity [13]: 1 | motif_found [11]: TRUE

SGETQTTSPAIPWAAF
HD confidence (bait AP2B1_adaptin__P63010_700_937, HD1 P8 library, confidence level (4 = High, 2-3 = Medium, 1 = Low)): 4 | HD mean counts (bait AP2B1_adaptin__P63010_700_937, HD1 P8 library, mean NGS counts over replicate selections): 10.25 | HD count proportions (bait AP2B1_adaptin__P63010_700_937, HD1 P8 library, mean proportion of NGS counts): 0.003472

SGGSDEAPPKPSRPGYPSPR [PTK2]
motif_found [14]: FALSE

SHLGTYGVFTNAAFDPSP----
motif_found [6]: FALSE

SIDAHTFDFETIPHPNIEQ
motif_found [10]: FALSE | motif_found (bait MAP1LC3B_ATG8 (Q9GZQ8 2-119), HD2 library, benchmark motif instance recovered in the ProP-PD selection (TRUE/FALSE)): FALSE

SILEQTDMEAVEALVCMSSWGQRS
motif_found (bait SIN3A_PAH__Q96ST3_295_383, HD2 library, whether the validated benchmark motif instance was recovered in the ProP-PD selection (TRUE/FALSE)): FALSE

SKSSNASWPPEFQPGVPWKGIQNIDPES
motif_found [11]: FALSE

SKYITTIAGVMTLS
motif_found (library HD2, bait CALM1_EF-hand__P0DP23_2_149, motif instance NOT in library (in_library_check FALSE, in_library_coverage 0)): FALSE

SLEQSERRRRLLELQKSKRLDYVNHARRLA,ERRRRLLELQKSKRLDYVNHARR,PRLSQYKSKYSSLEQSERRRRLLELQKSKRLDYVNHARR,EQSERRRRLLELQKSKRLDYVNHARR (UniProt O95149 42-64, looked up, fragment) [SNUPN 42-64]
motif_found (HD2 library, bait KPNB1_Heat_1_Q14974_1_485, benchmark motif instance, in_library_check FALSE, in_library_coverage 0): FALSE

SLMTDEPGLDNPAYVSSAEDGQ
motif_found [6]: FALSE
